Measured values from patent US8802597B2, “Herbicidal pyrimidines” (E I du Pont de Nemours and Company, priority 2003, dated 2014).

Columns and labels:
Type in all cases: in vivo
[1] = test system: morningglory (Ipomoea coccinea); test: Test B pre/postemergence
In short: (§1)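 Visual rating, 0 (no effect) to 100 (complete control) versus controls, taken 13–15 days after treatment in greenhouse. Compounds formulated in non-phytotoxic solvent plus surfactant; pre: sprayed after seeding; post: plants at 1- to 4-leaf stage, 2–18 cm.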

corn (Zea mays) = test: Test B pre/postemergence
In short: as §1

[2] = test system: crabgrass (Digitaria sanguinalis); test: Test B pre/postemergence
In short: as §1

[3] = test system: barnyardgrass (Echinochloa crus-galli); test: Test B pre/postemergence
In short: as §1

[4] = test system: Surinam grass (Brachiaria decumbens); test: Test B pre/postemergence
In short: as §1

[5] = test system: velvetleaf (Abutilon theophrasti); test: Test B pre/postemergence
In short: as §1

[6] = test system: lambsquarters (Chenopodium album); test: Test B pre/postemergence
In short: as §1

[7] = test system: wheat (Triticum aestivum); test: Test B pre/postemergence
In short: as §1

[8] = test system: cocklebur (Xanthium strumarium); test: Test B pre/postemergence
In short: as §1

[9] = test system: pigweed (Amaranthus retroflexus); test: Test B pre/postemergence
In short: as §1

[10] = test system: giant foxtail (Setaria faberii); test: Test B pre/postemergence
In short: as §1

[11] = test system: barnyardgrass (Echinochloa crus-galli); test: Test B flooded paddy test; details: Flood, 1000 g ai/ha; scale 0 (no effect) to 100 (complete control)
In short: (§2)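 Plants were grown to the 2-leaf stage before treatment, then kept in a greenhouse for 13 to 15 days. Injury was rated visually against untreated controls on a 0 to 100 scale, where 0 is no effect and 100 is complete control.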

rice (Oryza sativa) = test: Test B flooded paddy test; details: Flood, 1000 g ai/ha; scale 0 to 100
In short: as §2

[12] = test system: duck salad (Heteranthera limosa); test: Test B flooded paddy test; details: Flood, 1000 g ai/ha; scale 0 to 100
In short: as §2

[13] = test system: umbrella sedge (Cyperus difformis); test: Test B flooded paddy test; details: Flood, 1000 g ai/ha; scale 0 to 100
In short: as §2

[14] = test system: blackgrass (Alopecurus myosuroides); test: Test B postemergence; details: for Blackgrass plant response rating: 125 g ai/ha, scale 0 to 100 (0 no effect, 100 complete control); for Plant response rating, Blackgrass: 500 g ai/ha, scale 0 to 100
In short: as §1

wild oat (Avena fatua) = test: Test B postemergence; details: for Oat, Wild plant response rating: 125 g ai/ha, scale 0 to 100 (0 no effect, 100 complete control); for Plant response rating, Oat, Wild: 500 g ai/ha, scale 0 to 100
In short: as §1

[15] = Postemergence, 125 g ai/ha, scale 0 to 100 (0 no effect, 100 complete control)
[16] = Postemergence, 500 g ai/ha, scale 0 to 100
[17] = Preemergence, 125 g ai/ha, scale 0 to 100 (0 no effect, 100 complete control)
[18] = Preemergence, 500 g ai/ha, scale 0 to 100 (0 no effect, 100 complete control)

Compound: COC(=O)c1nc(-c2ccc(C(F)(F)F)cc2)nc(N)c1Cl [Compound 44]
- Morningglory plant response rating [1, 15]: 80
- Plant response rating, Morningglory [1, 16]: 100
- Plant response rating, Morningglory [1, 17]: 10
- Morningglory plant response rating [1, 18]: 40
- Corn plant response rating (corn (Zea mays); [15]): 30
- Plant response rating, Corn (corn (Zea mays); [16]): 70
- Plant response rating, Corn (corn (Zea mays); [17]): 0
- Corn plant response rating (corn (Zea mays); [18]): 0
- Crabgrass plant response rating [2, 15]: 70
- Plant response rating, Crabgrass [2, 16]: 80
- Plant response rating, Crabgrass [2, 17]: 40
- Crabgrass plant response rating [2, 18]: 80
- Barnyardgrass plant response rating [3, 15]: 40
- Plant response rating, Barnyardgrass [3, 16]: 50
- Plant response rating, Barnyardgrass [3, 17]: 0
- Barnyardgrass plant response rating [3, 18]: 10
- Plant response rating, Surinam Grass [4, 16]: 50
- Plant response rating, Surinam Grass [4, 17]: 40
- Surinam Grass plant response rating [4, 18]: 60
- Velvetleaf plant response rating [5, 15]: 80
- Plant response rating, Velvetleaf [5, 16]: 90
- Plant response rating, Velvetleaf [5, 17]: 30
- Velvetleaf plant response rating [5, 18]: 80
- Lambsquarters plant response rating [6, 15]: 90
- Plant response rating, Lambsquarters [6, 16]: 90
- Lambsquarters plant response rating [6, 18]: 60
- Wheat plant response rating [7, 15]: 0
- Plant response rating, Wheat [7, 16]: 30
- Plant response rating, Wheat [7, 17]: 30
- Plant response rating, Wheat [7, 18]: 60
- Cocklebur plant response rating [8, 15]: 90
- Plant response rating, Cocklebur [8, 16]: 100
- Plant response rating, Cocklebur [8, 17]: 10
- Cocklebur plant response rating [8, 18]: 80
- Pigweed plant response rating [9, 15]: 80
- Plant response rating, Pigweed [9, 16]: 90
- Plant response rating, Pigweed [9, 17]: 70
- Pigweed plant response rating [9, 18]: 80
- Plant response rating, Foxtail, Giant [10, 17]: 20
- Foxtail, Giant plant response rating [10, 18]: 40
- Plant response rating, Barnyardgrass [11]: 0
- Plant response rating, Rice (rice (Oryza sativa)): 0
- Plant response rating, Ducksalad [12]: 90
- Plant response rating, Sedge, Umbrella [13]: 80
- Blackgrass plant response rating [14]: 30
- Plant response rating, Blackgrass [14]: 40
- Oat, Wild plant response rating (wild oat (Avena fatua)): 0
- Plant response rating, Oat, Wild (wild oat (Avena fatua)): 0

Compound: CCOC(=O)C(OC(C)=O)c1nc(C2CC2)nc(N)c1Br (stereo not shown) [Compound 47]
- Morningglory plant response rating [1, 15]: 80
- Plant response rating, Morningglory [1, 16]: 90
- Plant response rating, Morningglory [1, 17]: 80
- Morningglory plant response rating [1, 18]: 100
- Corn plant response rating (corn (Zea mays); [15]): 0
- Plant response rating, Corn (corn (Zea mays); [16]): 0
- Plant response rating, Corn (corn (Zea mays); [17]): 0
- Corn plant response rating (corn (Zea mays); [18]): 30
- Crabgrass plant response rating [2, 15]: 10
- Plant response rating, Crabgrass [2, 16]: 60
- Plant response rating, Crabgrass [2, 17]: 20
- Crabgrass plant response rating [2, 18]: 90
- Barnyardgrass plant response rating [3, 15]: 20
- Plant response rating, Barnyardgrass [3, 16]: 60
- Plant response rating, Barnyardgrass [3, 17]: 0
- Barnyardgrass plant response rating [3, 18]: 40
- Surinam Grass plant response rating [4, 15]: 0
- Plant response rating, Surinam Grass [4, 16]: 20
- Plant response rating, Surinam Grass [4, 17]: 0
- Surinam Grass plant response rating [4, 18]: 20
- Velvetleaf plant response rating [5, 15]: 20
- Plant response rating, Velvetleaf [5, 16]: 40
- Plant response rating, Velvetleaf [5, 17]: 60
- Velvetleaf plant response rating [5, 18]: 90
- Lambsquarters plant response rating [6, 15]: 80
- Plant response rating, Lambsquarters [6, 16]: 90
- Plant response rating, Lambsquarters [6, 17]: 90
- Lambsquarters plant response rating [6, 18]: 100
- Wheat plant response rating [7, 15]: 0
- Plant response rating, Wheat [7, 16]: 0
- Plant response rating, Wheat [7, 17]: 20
- Plant response rating, Wheat [7, 18]: 50
- Cocklebur plant response rating [8, 15]: 90
- Plant response rating, Cocklebur [8, 16]: 100
- Plant response rating, Cocklebur [8, 17]: 80
- Cocklebur plant response rating [8, 18]: 90
- Pigweed plant response rating [9, 15]: 70
- Plant response rating, Pigweed [9, 16]: 80
- Plant response rating, Pigweed [9, 17]: 80
- Pigweed plant response rating [9, 18]: 90
- Foxtail, Giant plant response rating [10, 15]: 10
- Plant response rating, Foxtail, Giant [10, 16]: 50
- Plant response rating, Foxtail, Giant [10, 17]: 20
- Foxtail, Giant plant response rating [10, 18]: 40
- Plant response rating, Barnyardgrass [11]: 0
- Plant response rating, Rice (rice (Oryza sativa)): 0
- Plant response rating, Ducksalad [12]: 80
- Plant response rating, Sedge, Umbrella [13]: 70
- Blackgrass plant response rating [14]: 0
- Plant response rating, Blackgrass [14]: 0
- Oat, Wild plant response rating (wild oat (Avena fatua)): 0
- Plant response rating, Oat, Wild (wild oat (Avena fatua)): 0
